Laboratory results as given in patent publication US8017612B2, “Piperazine compound and use thereof as a HCV polymerase inhibitor” (priority 2006, dated 2011).

Columns and labels:
[1] = target: T1, HCV polymerase (NS5B) type 1b (Hepatitis C virus genotype 1b, UniProt P26663); assay: Assay of enzyme (HCV polymerase) inhibitory activity, type 1b enzyme; assay type: biochemical, HCV BK strain (type 1b); conditions: HCV polymerase inhibitory activity IC50, 1b, type 1b enzyme
T1 construct: a region encoding NS5B (J Virol 1991 March, 65(3), 1105-13, 544 amino acids after deletion of 47 amino acids on the C-terminal); 6xHis (C); made in house; host or cells: Escherichia coli
Summary of the method: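 Rxn: NS5B 1b (BK, ΔC47, His6) 0.5 μg/ml; substrate RNA 5 μg/ml; ATP/GTP/CTP 50 μM, UTP 2 μM + [5,6-3H]UTP; 20 mM Tris pH 7.5, 5 mM MgCl2, 50 mM NaCl, 1 mM EDTA/DTT. 25 °C, 60 min. Stop with TCA/pyrophosphate, filter, scintillation count; IC50 vs. untreated.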

[2] = target: T2, HCV polymerase (NS5B) type 1a (Hepatitis C virus genotype 1a, UniProt P26664); assay: Assay of enzyme (HCV polymerase) inhibitory activity, type 1a enzyme; assay type: biochemical, HCV type 1a (cloned from the blood of patients); conditions: HCV polymerase inhibitory activity IC50, 1a, type 1a enzyme
T2 construct: made in house; host or cells: Escherichia coli (by the 'similar method' of the 1b enzyme)
Summary of the method: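 NS5B Δ47 C-term His6 (type 1a, 1.5 μg/ml); substrate RNA 5 μg/ml; ATP/GTP/CTP 50 μM, UTP 2 μM + [5,6-3H]UTP; Tris pH 7.5, MgCl2 5 mM; 25° C, 60 min. TCA/pyrophosphate stop, GF/B filter, scintillation. IC50 vs no-compound control.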

**Q.** With CCCc1ccc(CNC(=O)[C@H]2CN(C(=O)Nc3ccccc3C(=O)OC)CCN2S(=O)(=O)c2ccc(OC(F)(F)F)cc2)cc1 [Example 831, 2-{[(R)-3-(4-propyl-benzylcarbamoyl)-4-(4-trifluoromethoxy-benzenesulfonyl)-piperazine-1-carbonyl]-amino}-benzoic acid methyl ester] as the compound, how does the IC50 [1] read?
**A.** > 1000 nM

**Q.** And the IC50 [2]?
**A.** > 1000 nM

**Q.** CCCc1ccc(CNC(=O)[C@H]2CN(c3nc(C)c(S(=O)(=O)NC(C)=O)s3)CCN2S(=O)(=O)c2ccc(OC(F)(F)F)cc2)cc1 [Example 832, (R)-4-(5-acetylsulfamoyl-4-methyl-thiazol-2-yl)-1-(4-trifluoromethoxy-benzenesulfonyl)-piperazine-2-carboxylic acid 4-propyl-benzylamide] was tested. Which IC50 [1] did it give?
**A.** < 100 nM

**Q.** What about the IC50 [2] of the same compound?
**A.** < 100 nM

**Q.** For CCCc1ccc(CNC(=O)[C@H]2CN(C(=O)Nc3ccccc3OCc3ccccc3)CCN2S(=O)(=O)c2ccc(OC(F)(F)F)cc2)cc1 [Example 833, (R)-4-(4-trifluoromethoxy-benzenesulfonyl)-piperazine-1,3-dicarboxylic acid 1-[(2-benzyloxy-phenyl)-amide] 3-(4-propyl-benzylamide)], which IC50 [1] is on record?
**A.** > 1000 nM

**Q.** What about the IC50 [2] of the same compound?
**A.** > 1000 nM

**Q.** How did the IC50 [1] turn out when CCCc1ccc(CNC(=O)[C@H]2CN(C(=O)Nc3ccccc3O)CCN2S(=O)(=O)c2ccc(OC(F)(F)F)cc2)cc1 [Example 834, (R)-4-(4-trifluoromethoxy-benzenesulfonyl)-piperazine-1,3-dicarboxylic acid 1-[(2-hydroxy-phenyl)-amide] 3-(4-propyl-benzylamide)] was run?
**A.** 100 to 1000 nM

**Q.** What about the IC50 [2] of the same compound?
**A.** 100 to 1000 nM

**Q.** For O=C(NCc1ccc(OC(F)(F)F)cc1)[C@H]1CN(c2nc3cn[nH]c(=O)c3s2)CCN1S(=O)(=O)c1ccc([N+](=O)[O-])cc1 [Example 835, (R)-1-(4-nitro-benzenesulfonyl)-4-(7-oxo-6,7-dihydro-thiazolo[4,5-d]pyridazin-2-yl)-piperazine-2-carboxylic acid 4-trifluoromethoxy-benzylamide], which IC50 [1] is on record?
**A.** < 100 nM

**Q.** What about the IC50 [2] of the same compound?
**A.** < 100 nM

**Q.** Which results are given for CCC(F)(F)c1ccc(CNC(=O)[C@H]2CN(c3cnc4cncc(C(=O)O)c4n3)CCN2S(=O)(=O)c2ccc(OC(F)(F)F)cc2)cc1 [Example 836, 2-[(R)-3-[4-(1,1-difluoro-propyl)-benzylcarbamoyl]-4-(4-trifluoromethoxy-benzenesulfonyl)-piperazin-1-yl]-pyrido[3,4-b]pyrazine-8-carboxylic acid]?
**A.** IC50 [1]: < 100 nM; IC50 [2]: < 100 nM

**Q.** With CCCc1ccc(CNC(=O)[C@H]2CN(C(=O)Nc3ccccc3C(=O)OCc3ccccc3)CCN2S(=O)(=O)c2ccc(OC(F)(F)F)cc2)cc1 [Example 837, 2-{[(R)-3-(4-propyl-benzylcarbamoyl)-4-(4-trifluoromethoxy-benzenesulfonyl)-piperazine-1-carbonyl]-amino}-benzoic acid benzyl ester] as the compound, how does the IC50 [1] read?
**A.** > 1000 nM

**Q.** And the IC50 [2]?
**A.** > 1000 nM

**Q.** CCCc1ccc(CNC(=O)[C@H]2CN(C(=O)Nc3ccccc3C(=O)O)CCN2S(=O)(=O)c2ccc(OC(F)(F)F)cc2)cc1 [Example 838, 2-{[(R)-3-(4-propyl-benzylcarbamoyl)-4-(4-trifluoromethoxy-benzenesulfonyl)-piperazine-1-carbonyl]-amino}-benzoic acid] was tested. Which IC50 [1] did it give?
**A.** > 1000 nM

**Q.** What about the IC50 [2] of the same compound?
**A.** > 1000 nM

**Q.** Which results are given for Cc1n[nH]c(=O)c2sc(N3CCN(S(=O)(=O)c4ccc(OC(F)(F)F)cc4)[C@@H](C(=O)NCc4ccc(OC(F)(F)F)cc4)C3)nc12 [Example 839, (R)-4-(4-methyl-7-oxo-6,7-dihydro-thiazolo[4,5-d]pyridazin-2-yl)-1-(4-trifluoromethoxy-benzenesulfonyl)-piperazine-2-carboxylic acid 4-trifluoromethoxy-benzylamide]?
**A.** IC50 [1]: < 100 nM; IC50 [2]: < 100 nM

**Q.** Which results are given for CCC(C)(C)c1ccc(CNC(=O)[C@H]2CN(c3nc4cn[nH]c(=O)c4s3)CCN2S(=O)(=O)c2ccc(OC(F)(F)F)cc2)cc1 [Example 840, (R)-4-(7-oxo-6,7-dihydro-thiazolo[4,5-d]pyridazin-2-yl)-1-(4-trifluoromethoxy-benzenesulfonyl)-piperazine-2-carboxylic acid 4-(1,1-dimethyl-propyl)-benzylamide]?
**A.** IC50 [1]: < 100 nM; IC50 [2]: < 100 nM

**Q.** Which results are given for CCCCc1ccc(CNC(=O)[C@H]2CN(c3nc4cn[nH]c(=O)c4s3)CCN2S(=O)(=O)c2ccc(OC(F)(F)F)cc2)cc1 [Example 841, (R)-4-(7-oxo-6,7-dihydro-thiazolo[4,5-d]pyridazin-2-yl)-1-(4-trifluoromethoxy-benzenesulfonyl)-piperazine-2-carboxylic acid 4-butyl-benzylamide]?
**A.** IC50 [1]: < 100 nM; IC50 [2]: < 100 nM

**Q.** With CCCc1ccc(CNC(=O)[C@H]2CN(c3cnc4cncc(C(=O)O)c4n3)CCN2S(=O)(=O)c2ccc(C(F)(F)F)cc2)cc1 [Example 842, 2-[(R)-3-(4-propyl-benzylcarbamoyl)-4-(4-trifluoromethyl-benzenesulfonyl)-piperazin-1-yl]-pyrido[3,4-b]pyrazine-8-carboxylic acid] as the compound, how does the IC50 [1] read?
**A.** < 100 nM

**Q.** And the IC50 [2]?
**A.** < 100 nM

**Q.** How did the IC50 [1] turn out when CCCc1ccc(CNC(=O)[C@H]2CN(c3cnc4cncc(C(=O)O)c4n3)CCN2S(=O)(=O)c2ccc([N+](=O)[O-])cc2)cc1 [Example 843, 2-[(R)-4-(4-nitro-benzenesulfonyl)-3-(4-propyl-benzylcarbamoyl)-piperazin-1-yl]-pyrido[3,4-b]pyrazine-8-carboxylic acid] was run?
**A.** < 100 nM

**Q.** And the IC50 [2]?
**A.** < 100 nM

**Q.** With CCCc1ccc(CNC(=O)[C@H]2CN(c3cnc4cncc(C(=O)O)c4n3)CCN2S(=O)(=O)c2ccc(C(C)(C)C)cc2)cc1 [Example 844, 2-[(R)-4-(4-tert-butyl-benzenesulfonyl)-3-(4-propyl-benzylcarbamoyl)-piperazin-1-yl]-pyrido[3,4-b]pyrazine-8-carboxylic acid] as the compound, how does the IC50 [1] read?
**A.** < 100 nM

**Q.** And the IC50 [2]?
**A.** < 100 nM

**Q.** With CCCc1ccc(CNC(=O)[C@H]2CN(c3cnc4cncc(C(=O)O)c4n3)CCN2S(=O)(=O)c2ccc(Cl)cc2)cc1 [Example 845, 2-[(R)-4-(4-chloro-benzenesulfonyl)-3-(4-propyl-benzylcarbamoyl)-piperazin-1-yl]-pyrido[3,4-b]pyrazine-8-carboxylic acid] as the compound, how does the IC50 [1] read?
**A.** < 100 nM

**Q.** What about the IC50 [2] of the same compound?
**A.** < 100 nM

**Q.** What does the source list for CCCc1ccc(CNC(=O)[C@H]2CN(c3nc(C)c(C(=O)C(=O)OCC)s3)CCN2S(=O)(=O)c2ccc(OC(F)(F)F)cc2)cc1 [Example 846, {4-methyl-2-[(R)-3-(4-propyl-benzylcarbamoyl)-4-(4-trifluoromethoxy-benzenesulfonyl)-piperazin-1-yl]-thiazol-5-yl}-oxo-acetic acid ethyl ester]?
**A.** IC50 [1]: < 100 nM; IC50 [2]: 100 to 1000 nM

**Q.** CCCc1ccc(CNC(=O)[C@H]2CN(c3nc(Cl)c(C(=O)O)s3)CCN2S(=O)(=O)c2ccc(OC(F)(F)F)cc2)cc1 [Example 847, 4-chloro-2-[(R)-3-(4-propyl-benzylcarbamoyl)-4-(4-trifluoromethoxy-benzenesulfonyl)-piperazin-1-yl]-thiazole-5-carboxylic acid] was tested. Which IC50 [1] did it give?
**A.** < 100 nM

**Q.** What about the IC50 [2] of the same compound?
**A.** < 100 nM

**Q.** What does the source list for CCCc1ccc(CNC(=O)[C@H]2CN(c3nc(C)c(C(=O)C(=O)O)s3)CCN2S(=O)(=O)c2ccc(OC(F)(F)F)cc2)cc1 [Example 848, {4-methyl-2-[(R)-3-(4-propyl-benzylcarbamoyl)-4-(4-trifluoromethoxy-benzenesulfonyl)-piperazin-1-yl]-thiazol-5-yl}-oxo-acetic acid]?
**A.** IC50 [1]: < 100 nM; IC50 [2]: < 100 nM

**Q.** Which IC50 [1] does the source give for O=C(NCC1CC1c1ccccc1)[C@H]1CN(c2cnc3cncnc3n2)CCN1S(=O)(=O)c1ccc(OC(F)(F)F)cc1 (stereo partly drawn) [Example 849, (R)-4-pteridin-7-yl-1-(4-trifluoromethoxy-benzenesulfonyl)-piperazine-2-carboxylic acid (2-phenyl-cyclopropylmethyl)-amide] here?
**A.** < 100 nM

**Q.** And the IC50 [2]?
**A.** 100 to 1000 nM

**Q.** What does the source list for O=C(NCc1ccc(OC(F)(F)F)cc1)[C@H]1CN(c2nc3cn[nH]c(=O)c3s2)CCN1S(=O)(=O)c1ccc(Cl)s1 [Example 850, (R)-1-(5-chloro-thiophene-2-sulfonyl)-4-(7-oxo-6,7-dihydro-thiazolo[4,5-d]pyridazin-2-yl)-piperazine-2-carboxylic acid 4-trifluoromethoxy-benzylamide]?
**A.** IC50 [1]: < 100 nM; IC50 [2]: < 100 nM

**Q.** With COCC(C)(C)c1ccc(CNC(=O)[C@H]2CN(c3nc4cn[nH]c(=O)c4s3)CCN2S(=O)(=O)c2ccc(OC(F)(F)F)cc2)cc1 [Example 851, (R)-4-(7-oxo-6,7-dihydro-thiazolo[4,5-d]pyridazin-2-yl)-1-(4-trifluoromethoxy-benzenesulfonyl)-piperazine-2-carboxylic acid 4-(2-methoxy-1,1-dimethyl-ethyl)-benzylamide] as the compound, how does the IC50 [1] read?
**A.** < 100 nM

**Q.** What about the IC50 [2] of the same compound?
**A.** < 100 nM

**Q.** CCNC(=O)c1cnc(N2CCN(S(=O)(=O)c3ccc(OC(F)(F)F)cc3)[C@@H](C(=O)NCc3ccc(OC(F)(F)F)cc3)C2)cn1 [Example 852, (R)-4-(4-trifluoromethoxy-benzenesulfonyl)-3,4,5,6-tetrahydro-2H-[1,2′]bipyrazinyl-3,5′-dicarboxylic acid 5′-ethylamide 3-(4-trifluoromethoxy-benzylamide)] was tested. Which IC50 [1] did it give?
**A.** < 100 nM

**Q.** What about the IC50 [2] of the same compound?
**A.** < 100 nM
